{
  "source": "paper PMC10663540",
  "about": "“Structure-based discovery of dual pathway inhibitors for SARS-CoV-2 entry” (Nature Communications, 2023)",
  "key": {"in vitro": {"experiment": "in vitro", "settings": "human"}, "human CTSL": {"target": "T1, human CTSL (Homo sapiens, UniProt P07711)", "T1 construct": "made in house", "T1 sequence (P07711 114-333)": "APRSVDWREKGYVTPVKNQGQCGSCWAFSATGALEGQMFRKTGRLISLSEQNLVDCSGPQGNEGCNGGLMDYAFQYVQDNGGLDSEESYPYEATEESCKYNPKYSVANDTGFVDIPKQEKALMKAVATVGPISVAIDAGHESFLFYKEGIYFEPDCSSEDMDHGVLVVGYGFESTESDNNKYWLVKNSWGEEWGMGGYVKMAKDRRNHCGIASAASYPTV", "experiment": "FRET enzymatic inhibition assay of CTSL (IC50 measurement)", "type": "biochemical", "settings": "rep1-rep4"}, "Calu-3 cells": {"tested_on": "Calu-3 cells", "settings": "rep1-rep3"}},
  "note": "Values joined by “and” are separate entries in the source; they are usually repeats but may differ in a detail not shown here. Equal values may be shown once. Read-outs that look alike come from different tables or passages of the source.",
  "data": [
    {"smiles": "CN1CCN(C(=O)N[C@@H](Cc2ccccc2)C(=O)N[C@H](/C=C/S(=O)(=O)c2ccccc2)CCc2ccccc2)CC1", "note": "[K777]", "values": [
      {"measurement": "CC50", "setting": "in vitro", "value": 110, "unit": "µM"},
      {"measurement": "Inhibition: CTSL", "setting": "human CTSL; 0.0762939 nM, 7.62939e-05 µM", "value": "1.13% and 5.78% and 3.59% and 2.15%"},
      {"measurement": "inhibition at 0.000152588 µM", "setting": "human CTSL; 0.152588 nM", "value": 5.42, "unit": "%"},
      {"measurement": "Inhibition: CTSL", "setting": "human CTSL; 0.152588 nM, 0.000152588 µM", "value": "10.09% and 6.36% and 10.80%"},
      {"measurement": "inhibition at 0.000610352 µM", "setting": "human CTSL; 0.610352 nM", "value": 9.96, "unit": "%"},
      {"measurement": "Inhibition: CTSL", "setting": "human CTSL; 0.610352 nM, 0.000610352 µM", "value": "11.08% and 11.88% and 12.12%"},
      {"measurement": "inhibition at 0.0012207 µM", "setting": "human CTSL; 1.2207 nM", "value": 14.1, "unit": "%"},
      {"measurement": "Inhibition: CTSL", "setting": "human CTSL; 1.2207 nM, 0.0012207 µM", "value": "15.17% and 15.67% and 15.23%"},
      {"measurement": "inhibition at 0.00244141 µM", "setting": "human CTSL; 2.44141 nM", "value": 27.1, "unit": "%"},
      {"measurement": "Inhibition: CTSL", "setting": "human CTSL; 2.44141 nM, 0.00244141 µM", "value": "29.89% and 27.84% and 28.16%"},
      {"measurement": "inhibition at 0.00488281 µM", "setting": "human CTSL; 4.88281 nM", "value": 46.7, "unit": "%"},
      {"measurement": "Inhibition: CTSL", "setting": "human CTSL; 4.88281 nM, 0.00488281 µM", "value": "49.46% and 47.59% and 48.29%"},
      {"measurement": "inhibition at 0.00976562 µM", "setting": "human CTSL; 9.76562 nM", "value": 73.6, "unit": "%"},
      {"measurement": "Inhibition: CTSL", "setting": "human CTSL; 9.76562 nM, 0.00976562 µM", "value": "74.62% and 72.91% and 72.68%"},
      {"measurement": "inhibition at 0.0195312 µM", "setting": "human CTSL; 19.5312 nM", "value": 93.2, "unit": "%"},
      {"measurement": "Inhibition: CTSL", "setting": "human CTSL; 19.5312 nM, 0.0195312 µM", "value": "93.40% and 92.49% and 94.07%"},
      {"measurement": "inhibition at 0.0390625 µM", "setting": "human CTSL; 39.0625 nM", "value": 99.5, "unit": "%"},
      {"measurement": "Inhibition: CTSL", "setting": "human CTSL; 39.0625 nM, 0.0390625 µM", "value": "98.76% and 99.78% and 99.61%"},
      {"measurement": "inhibition at 0.078125 µM", "setting": "human CTSL; 78.125 nM", "value": 100, "unit": "%"},
      {"measurement": "Inhibition: CTSL", "setting": "human CTSL; 78.125 nM, 0.078125 µM", "value": "99.93% and 100.35% and 99.32%"},
      {"measurement": "inhibition at 0.15625 µM", "setting": "human CTSL; 156.25 nM", "value": 100, "unit": "%"},
      {"measurement": "Inhibition: CTSL", "setting": "human CTSL; 156.25 nM, 0.15625 µM", "value": "100.75% and 100.78%"},
      {"measurement": "inhibition at 0.3125 µM", "setting": "human CTSL; 312.5 nM", "value": 100, "unit": "%"},
      {"measurement": "Inhibition: CTSL", "setting": "human CTSL; 312.5 nM, 0.3125 µM", "value": "100.44% and 100.24% and 99.50%"},
      {"measurement": "inhibition at 0.625 µM", "setting": "human CTSL; 625 nM", "value": 100, "unit": "%"},
      {"measurement": "Inhibition: CTSL", "setting": "human CTSL; 625 nM, 0.625 µM", "value": "100.05% and 99.89%"},
      {"measurement": "inhibition at 1.25 µM", "setting": "human CTSL; 1250 nM", "value": 100, "unit": "%"},
      {"measurement": "Inhibition: CTSL", "setting": "human CTSL; 1250 nM, 1.25 µM", "value": "100.44% and 100.07% and 99.92%"},
      {"measurement": "inhibition at 2.5 µM", "setting": "human CTSL; 2500 nM", "value": 100, "unit": "%"},
      {"measurement": "Inhibition: CTSL", "setting": "human CTSL; 2500 nM, 2.5 µM", "value": "100.03% and 100.38% and 100.68%"},
      {"measurement": "inhibition at 5 µM", "setting": "human CTSL; 5000 nM", "value": 100, "unit": "%"},
      {"measurement": "Inhibition: CTSL", "setting": "human CTSL; 5000 nM, 5 µM", "value": "100.04% and 100.18% and 100.13%"},
      {"measurement": "inhibition at 10 µM", "setting": "human CTSL; 10000 nM", "value": 100, "unit": "%"},
      {"measurement": "Inhibition: CTSL", "setting": "human CTSL; 10000 nM, 10 µM", "value": "100.22% and 100.09% and 99.98%"},
      {"measurement": "Cytotoxicity", "setting": "Calu-3 cells; 0.017 μM", "value": "8.99% and 10.05% and 10.29%"},
      {"measurement": "Cytotoxicity", "setting": "Calu-3 cells; 0.05 μM", "value": "20.39% and 20.63% and 20.94%"},
      {"measurement": "Cytotoxicity", "setting": "Calu-3 cells; 0.15 μM", "value": "17.33% and 17.61% and 17.94%"},
      {"measurement": "Cytotoxicity", "setting": "Calu-3 cells; 0.46 μM", "value": "15.43% and 15.73% and 16.02%"},
      {"measurement": "Cytotoxicity", "setting": "Calu-3 cells; 4.1 μM", "value": "16.54% and 16.77% and 16.98%"},
      {"measurement": "Cytotoxicity", "setting": "Calu-3 cells; 12.3 μM", "value": "18.57% and 18.78% and 19.05%"},
      {"measurement": "Cytotoxicity", "setting": "Calu-3 cells; 37 μM", "value": "15.46% and 15.63% and 15.88%"},
      {"measurement": "Cytotoxicity", "setting": "Calu-3 cells; 111.1 μM", "value": "60.74% and 60.66% and 60.71%"},
      {"measurement": "Cytotoxicity", "setting": "Calu-3 cells; 333.3 μM", "value": "97.79% and 97.81%"},
      {"measurement": "Cytotoxicity", "setting": "Calu-3 cells; 1000 μM", "value": 99.56, "unit": "%"}
    ]},
    {"smiles": "N=C(N)c1ccc2cc(OC(=O)c3ccc(N=C(N)N)cc3)ccc2c1", "note": "[Nafamostat]", "values": [
      {"measurement": "CC50", "setting": "in vitro", "value": 452, "unit": "µM"}
    ]}
  ]
}
